Results from article PMC7537397, “Deciphering and predicting CD4^+ T cell immunodominance of influenza virus hemagglutinin” (The Journal of Experimental Medicine, 2020).

What was measured:
[1] = system: H1-HA–reactive T cell clones from CD4^+ naive T cell compartment; type: cell-based, human
HLA-DR, HLA-DQ, HLA-DP = test: MHC-II restriction of T cell clones with blocking antibodies; type: cell-based, human
[2] = system: H1-HA–specific memory CD4^+ T cell clones, donor HD1; test: Functional avidity of memory T cell clones with anti-head or anti-stem EBV-B cell clones as APCs; type: cell-based, human; conditions: HLA-DR–restricted clones specific for the peptide
MHC-II molecules = test: MS-based MHC-II peptidomics, H1-HA–pulsed anti-head and anti-stem EBV-B cell clones of donor HD1; design: species or system human; conditions: 401–420: anti-stem clone; 416–430 and 386–400: both anti-head and anti-stem clones; union of n = 3
[3] = system: H1-HA–reactive T cell clones from CD4^+ memory (Tcm, Tem, or cTfh) compartment, donor HD1; type: cell-based, human
HLA-DRB1*08:01 = HLA-DRB1*08:01 (Homo sapiens, UniProt P01903+P01911, A100R/A103L/A169T/D86S/F76Y/H45Y/I96F/K41T/L162R/M171V/P40S/Q125H/Q178H/Q39Y/Q99D/R218S/R42G/S66Y/V115G/W38E); type: binding; conditions: pH 7
[4] = system: H1-HA–specific memory CD4^+ T cell clones, donor HD1; type: cell-based, human; conditions: for functional avidity for peptide, memory T cell clone specific for the peptide: donor HD1 memory clones M1 (411–430), M2 (396–410), M3 (526–540), M4 (121–140), M5 (186–200), M6 (446–460), autologous monocytes; for functional avidity for peptide, memory T cell clone specific for the peptide / functional avidity for H1-HA protein, memory T cell clone specific for the peptide: from EC50, day 3; for functional avidity for H1-HA protein, memory T cell clone specific for the peptide: donor HD1 memory clones M1, M4, M5, M6; for fold lower functional avidity for H1-HA protein, memory T cell clone specific for the peptide: clones M2 (396–410) and M3 (526–540), had avidity for peptide comparable to clone M1
[5] = system: H1-HA–specific naive CD4^+ T cell clones, donor HD1; type: cell-based, human; conditions: for fold lower avidity for protein, naive T cell clone specific for the peptide: clones N2 (521–540) and N3 (536–555); for functional avidity for peptide, naive T cell clone specific for the peptide: donor HD1 naive clones N1 (411–430), N2 (521–540), N3 (536–555), autologous monocytes, from EC50, day 3
[6] = system: naive and memory CD4^+ T cells; test: T cell library screening and epitope mapping, naive and memory CD4^+ T cells; type: cell-based, human; conditions: memory library

Sequence: AGAKSFYKNLIWLVKKGNSY
- N sister clones (epitope-specific naive clones per TCR Vβ clonotype) [1]: 1

Sequence: EDKHNGKLCKLRGVAPLHLG
- N sister clones (epitope-specific naive clones per TCR Vβ clonotype) [1]: 1

Sequence: EGRMNYYWTLVEPGDKITFE
- MHC-II restriction of T cell clones specific for the peptide (HLA-DR, HLA-DQ, HLA-DP): HLA-DR restricted
- activation, proliferation and functional avidity with anti-stem compared with anti-head B cells as APCs [2]: much lower activation and proliferation
- reduction of functional avidity with anti-stem compared with anti-head B cells as APCs [2]: 10 fold

Sequence: EKMNTQFTAVGKEFNHLEKR
- MHC-II restriction of T cell clones specific for the peptide (HLA-DR, HLA-DQ, HLA-DP): HLA-DR restricted
- detection of H1-HA–derived peptides of the region by MHC-II immunopeptidomics, HD1 B cell clones (MHC-II molecules): did not detect any
- activation, proliferation and functional avidity with anti-stem compared with anti-head B cells as APCs [2]: much lower activation and proliferation
- reduction of functional avidity with anti-stem compared with anti-head B cells as APCs [2]: 10 fold
- number of different TCR Vβ clonotypes specific for the peptide ([3]; 88 distinct clonotypes in total): 16 clonotypes
- number of sequenced T cell clones specific for the peptide ([3]; 274 clones sequenced): 62 clones
- binding affinity to HLA-DRB1*08:01 relative to subdominant peptides (HLA-DRB1*08:01): comparable to that of subdominant peptides

Sequence: GFLDIWTYNAELLVL
- N sister clones (epitope-specific naive clones per TCR Vβ clonotype) [1]: 1

Sequence: GFLDIWTYNAELLVLLENER
- N sister clones (epitope-specific naive clones per TCR Vβ clonotype) [1]: 1

Sequence: GKLCKLRGVAPLHLG
- N sister clones (epitope-specific naive clones per TCR Vβ clonotype) [1]: 1

Sequence: HLEKRIENLNKKVDD
- MHC-II restriction of T cell clones specific for the peptide (HLA-DR, HLA-DQ, HLA-DP): HLA-DR–restricted
- detection of H1-HA–derived peptides of the region by MHC-II immunopeptidomics, HD1 B cell clones (MHC-II molecules): detected by MHC-II immunopeptidomics on both anti-head and anti-stem B cell clones
- activation, proliferation and functional avidity with anti-stem compared with anti-head B cells as APCs [2]: comparable functional avidity

Sequence: KGKEVLVLWGIHHPS
- functional avidity for peptide, memory T cell clone specific for the peptide [4]: functional avidity lower than the median of the distribution
- functional avidity for H1-HA protein, memory T cell clone specific for the peptide [4]: functional avidity lower than the median of the distribution
- MHC-II restriction of T cell clones specific for the peptide (HLA-DR, HLA-DQ, HLA-DP): HLA-DQ

Sequence: KLESTRIYQILAIYSTVASS
- fold lower avidity for protein, naive T cell clone specific for the peptide [5]: 100 fold
- functional avidity for peptide, naive T cell clone specific for the peptide [5]: high avidity

Sequence: LENERTLDYHDSNVK
- functional avidity for peptide, memory T cell clone specific for the peptide [4]: functional avidity lower than the median of the distribution
- functional avidity for H1-HA protein, memory T cell clone specific for the peptide [4]: functional avidity lower than the median of the distribution
- MHC-II restriction of T cell clones specific for the peptide (HLA-DR, HLA-DQ, HLA-DP): HLA-DQ

Sequence: QNAIDEITNKVNSVI
- MHC-II restriction of T cell clones specific for the peptide (HLA-DR, HLA-DQ, HLA-DP): HLA-DR–restricted
- detection of H1-HA–derived peptides of the region by MHC-II immunopeptidomics, HD1 B cell clones (MHC-II molecules): detected by MHC-II immunopeptidomics on both anti-head and anti-stem B cell clones
- activation, proliferation and functional avidity with anti-stem compared with anti-head B cells as APCs [2]: comparable functional avidity

Sequence: RIYQILAIYSTVASS
- fold lower functional avidity for H1-HA protein, memory T cell clone specific for the peptide [4]: 1,000 fold
- functional avidity for peptide, memory T cell clone specific for the peptide [4]: high functional avidity

Sequence: SRYSKKFKPEIAIRPKVRDQ
- N sister clones (epitope-specific naive clones per TCR Vβ clonotype) [1]: 1

Sequence: TVASSLVLVVSLGAISFWMC
- N sister clones (epitope-specific naive clones per TCR Vβ clonotype) [1]: 1
- fold lower avidity for protein, naive T cell clone specific for the peptide [5]: 100 fold
- functional avidity for peptide, naive T cell clone specific for the peptide [5]: high avidity

Sequence: VNSVIEKMNTQFTAV
- fold lower functional avidity for H1-HA protein, memory T cell clone specific for the peptide [4]: 1,000 fold
- functional avidity for peptide, memory T cell clone specific for the peptide [4]: high functional avidity
- percentage of immunodominant T cell clones ([6]; donor HD4): 31.1%

Sequence: VVPRYAFAMERNAGSGIIIS
- percentage of immunodominant T cell clones ([6]; donor HD3): 24.5%
